Some test systems named below: HOP-62; UACC-257; RPMI-8226; UACC-62; SF-268; LOX IMVI; SK-MEL-28; SF-539; MDA-MB-435; IGROV-1; SK-MEL-2; CCRF-CEM; 786-0; K562; NCI-H522; A498; U-251; SNB-75; SR; NCI-H23.
Holding throughout (test): inhibition of tumour cell growth, NCI panel, 48 h

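Cultured in 96-well plates, cells were exposed to test compound for 48 hours across five concentrations. Here, GI50 denotes the concentration required for 50% inhibition of growth.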 Active and inactive are the calls of the source. Cut-off read from the data, not from the text of the source: active = GI50 up to about 1.1 µM and inactive = higher. A value given as a limit tells only on which side of the number the result lay.

As for `CC12CCC(=O)C=C1CCC1C2CCC2(C)C(C(=O)Cn3cnc4c(=S)nc[nH]c43)CCC12` (stereo not given), the GI50 with HOP-62 is 18.2 µM (inactive); in the test on UACC-257, 35.6 µM (inactive); with RPMI-8226, 25.5 µM (inactive); in the test with UACC-62 it was 23.8 µM (inactive); with SF-268, 38.3 µM (inactive); in the test with LOX IMVI, 24.3 µM (inactive). Moreover, the GI50 in the test with SK-MEL-28 was > 100 µM (inactive); in the test on SF-539, 55.5 µM (inactive); in the test on MDA-MB-435, 24.7 µM (inactive); in the test on IGROV-1, 23.6 µM (inactive); in the test on SK-MEL-2, 41.9 µM (inactive); with CCRF-CEM, 25.5 µM (inactive). The GI50 is 27.2 µM (inactive) in the test with 786-0; 48.3 µM (inactive) in the test with K562; 23.4 µM (inactive) with NCI-H522; 29.9 µM (inactive) in the test with A498; 30.1 µM (inactive) in the test with U-251; 15.5 µM (inactive) in the test with SNB-75. Further, the GI50 in the test on SR is 27.4 µM (inactive); in the test with NCI-H23 it was 24.5 µM (inactive).
With `COc1cccc(/N=C/c2cc(OC)c(OC)c(OC)c2)c1`, the GI50 in the test on HOP-62 was 94 µM (inactive); in the test with UACC-257, > 100 µM (inactive); with RPMI-8226, > 100 µM (inactive); in the test with UACC-62 it was 1.75 µM (inactive); with SF-268 it was > 100 µM (inactive); with LOX IMVI it was > 37.2 µM (inactive). The GI50 was > 75.7 µM (inactive) in the test with SK-MEL-28; > 100 µM (inactive) with SF-539; 18.8 µM (inactive) in the test with MDA-MB-435; > 100 µM (inactive) in the test with IGROV-1; > 85.1 µM (inactive) in the test with SK-MEL-2; > 100 µM (inactive) in the test with CCRF-CEM. For the same compound, the GI50 in the test on 786-0 is > 100 µM (inactive); in the test on K562, 3.58 µM (inactive); with NCI-H522, > 100 µM (inactive); in the test on A498 it was > 100 µM (inactive); in the test with U-251 it was > 100 µM (inactive); in the test on SNB-75, > 100 µM (inactive). In addition, the GI50 is > 23.1 µM (inactive) in the test with SR and > 100 µM (inactive) in the test on NCI-H23.
On to `O=C1NC(=O)C23C(=O)NC(=O)C12C1C=CC3CC1` (stereo not given), for which the GI50 in the test with HOP-62, with UACC-257, with RPMI-8226, with UACC-62, in the test with SF-268 and with LOX IMVI was > 10 µM (inactive) each time. Moreover, the GI50 with SK-MEL-28, with SF-539, in the test with MDA-MB-435, in the test on IGROV-1, in the test with SK-MEL-2 and in the test on CCRF-CEM was > 10 µM (inactive) each time. The GI50 in the test on 786-0, in the test with K562, in the test on NCI-H522, in the test with A498, with U-251 and in the test with SNB-75 was > 10 µM (inactive) each time. Besides, the GI50 with SR and in the test with NCI-H23 was > 10 µM (inactive) each time.
For `C/C(=N/NC(=S)Nc1cccc(C)c1)c1ccccn1`, the GI50 in the test on HOP-62 was 0.0341 µM (active); with UACC-257 it was < 0.01 µM (active); in the test on RPMI-8226, < 0.01 µM (active); with UACC-62, 0.331 µM (active); with SF-268 it was 0.21 µM (active); in the test on LOX IMVI, < 0.0121 µM (active). The GI50 with SK-MEL-28 is 1.71 µM (inactive); with SF-539 it was 1.57 µM (inactive); in the test on MDA-MB-435, 1.35 µM (inactive); with IGROV-1 it was < 0.01 µM (active); in the test on SK-MEL-2, 1.68 µM (inactive); in the test on CCRF-CEM it was < 0.01 µM (active). Also, the GI50 was 0.0217 µM (active) in the test on 786-0; < 0.01 µM (active) with K562; 0.238 µM (active) with NCI-H522; 1.56 µM (inactive) with A498; 0.0208 µM (active) with U-251; 2.11 µM (inactive) with SNB-75. For the same compound, the GI50 with SR and in the test with NCI-H23 was < 0.01 µM (active) throughout.
With `COCCOCc1nc(C#N)c(N)o1`, the GI50 with HOP-62, with UACC-257, with RPMI-8226, in the test on UACC-62, with SF-268 and with LOX IMVI was > 100 µM (inactive) in each case. The GI50 in the test with SK-MEL-28, in the test with SF-539, in the test on MDA-MB-435, with IGROV-1, with SK-MEL-2 and in the test with CCRF-CEM was > 100 µM (inactive) throughout. For the same compound, the GI50 is > 100 µM (inactive) with 786-0; > 100 µM (inactive) with K562; > 10 µM (inactive) in the test with NCI-H522; > 100 µM (inactive) in the test on A498; > 100 µM (inactive) with U-251; > 100 µM (inactive) with SNB-75. The GI50 with SR and in the test on NCI-H23 was > 100 µM (inactive) throughout.
Consider `O=C(O)CN(CC(=O)O)Cc1cc(C#Cc2ccc(C#Cc3ccccc3)cc2)cc(CN(CC(=O)O)CC(=O)O)n1`, for which the GI50 in the test with HOP-62 is 18.4 µM (inactive); in the test on UACC-257 it was 40.8 µM (inactive); in the test with RPMI-8226 it was 17.1 µM (inactive); with UACC-62, 12.4 µM (inactive); in the test with SF-268, 12.2 µM (inactive); with LOX IMVI it was 11.1 µM (inactive). For the same compound, the GI50 was > 52 µM (inactive) in the test on SK-MEL-28; 20.7 µM (inactive) in the test with SF-539; 22.8 µM (inactive) in the test with MDA-MB-435; 18.7 µM (inactive) in the test with IGROV-1; 29.2 µM (inactive) with SK-MEL-2; 29.4 µM (inactive) in the test on CCRF-CEM. The GI50 is 13.1 µM (inactive) in the test with 786-0; 33 µM (inactive) in the test on K562; 17.2 µM (inactive) in the test with NCI-H522; 40.6 µM (inactive) in the test on A498; 5.11 µM (inactive) in the test on U-251; 31.6 µM (inactive) in the test with SNB-75. Moreover, the GI50 is 18.2 µM (inactive) in the test with SR and 32.7 µM (inactive) in the test with NCI-H23.
`Nc1ccccc1OCCCOc1ccccc1N`: the GI50 in the test on HOP-62, in the test on UACC-257, in the test with RPMI-8226, in the test on UACC-62, with SF-268 and with LOX IMVI was > 100 µM (inactive) each time. Also, the GI50 in the test with SK-MEL-28 was > 100 µM (inactive); in the test on SF-539, > 100 µM (inactive); in the test with MDA-MB-435, 57.1 µM (inactive); with IGROV-1, > 100 µM (inactive); with SK-MEL-2 it was > 100 µM (inactive); in the test with CCRF-CEM, > 100 µM (inactive). Besides, the GI50 in the test on 786-0, in the test with K562, in the test with NCI-H522, in the test on A498, in the test on U-251 and with SNB-75 was > 100 µM (inactive) in each case. Besides, the GI50 with SR is 88.5 µM (inactive); with NCI-H23, > 100 µM (inactive).
In the case of `O=C1c2ccccc2-c2c1c1ccccc1c(=O)n2Cc1ccccc1`, the GI50 was 38.6 µM (inactive) with HOP-62; 79.4 µM (inactive) with UACC-257; > 100 µM (inactive) in the test with RPMI-8226; 46.6 µM (inactive) with UACC-62; 58.5 µM (inactive) in the test with SF-268; > 100 µM (inactive) in the test with LOX IMVI. Besides, the GI50 in the test on SK-MEL-28 was > 100 µM (inactive); in the test with SF-539, 57.1 µM (inactive); with MDA-MB-435, > 100 µM (inactive); in the test with IGROV-1 it was 64.4 µM (inactive); with SK-MEL-2 it was > 100 µM (inactive); in the test on CCRF-CEM, > 100 µM (inactive). Further, the GI50 in the test with 786-0 was 28.6 µM (inactive); in the test with K562 it was > 10 µM (inactive); in the test with NCI-H522, 54.3 µM (inactive); in the test with A498, 49.1 µM (inactive); in the test with U-251 it was 93.8 µM (inactive); with SNB-75, 56.4 µM (inactive). In addition, the GI50 with SR was > 100 µM (inactive); in the test on NCI-H23, 68.2 µM (inactive).
`C=C1C(=O)O[C@H]2[C@@H](O)[C@H](C)CCC/C(C)=C/CC[C@@]3(C)O[C@@H]3C[C@@H]12`: the GI50 with HOP-62 was 22.3 µM (inactive); in the test with UACC-257, 9.16 µM (inactive); with RPMI-8226, 8.38 µM (inactive); with UACC-62 it was 9.79 µM (inactive); with SF-268, 8.22 µM (inactive); in the test with LOX IMVI it was 4.43 µM (inactive). Also, the GI50 is 13.7 µM (inactive) in the test with SK-MEL-28; 2.59 µM (inactive) in the test with SF-539; 7.5 µM (inactive) in the test on MDA-MB-435; 3.5 µM (inactive) in the test on IGROV-1; 18.1 µM (inactive) in the test with SK-MEL-2; 1.07 µM (active) in the test on CCRF-CEM. Besides, the GI50 with 786-0 was 3.61 µM (inactive); in the test on K562, 4.06 µM (inactive); in the test with NCI-H522, 2.68 µM (inactive); in the test on A498 it was 12.4 µM (inactive); in the test with U-251, 8.73 µM (inactive); with SNB-75, 15.1 µM (inactive). In addition, the GI50 in the test on SR was 1.88 µM (inactive); with NCI-H23, 8.75 µM (inactive).
In the case of `CCCCOCCOC1=C(Cl)C(=O)c2c(O)ccc(O)c2C1=O`, the GI50 in the test on HOP-62 was 1.17 µM (inactive); with UACC-257 it was 0.429 µM (active); in the test on RPMI-8226, 0.255 µM (active); with UACC-62, 1.12 µM (active); in the test on SF-268 it was 1.6 µM (inactive); with LOX IMVI it was 0.439 µM (active). The GI50 in the test on SK-MEL-28 was 0.562 µM (active); in the test with SF-539, 0.993 µM (active); in the test on MDA-MB-435 it was 0.325 µM (active); with IGROV-1, 0.855 µM (active); in the test on SK-MEL-2 it was 1.37 µM (inactive); in the test with CCRF-CEM it was 0.0274 µM (active). Moreover, the GI50 in the test with 786-0 was 0.229 µM (active); in the test with K562 it was 0.0356 µM (active); with NCI-H522 it was 0.392 µM (active); in the test with A498, 1.82 µM (inactive); with U-251 it was 1.32 µM (inactive); in the test with SNB-75 it was 0.687 µM (active). Further, the GI50 is 0.0995 µM (active) with SR and 0.42 µM (active) with NCI-H23.

Values taken from ChEMBL document CHEMBL1201862, “PubChem BioAssay data set” (2004).
